From patent US5583147A, “Amides for the treatment of atherosclerosis” (The Dupont Merck Pharmaceutical Company, priority 1994, dated 1996)

Biological target: T1, Acyl-CoA: Cholesterol Acyltransferase (ACAT) (Rattus norvegicus, UniProt Q7TQM4)
T1 construct: centrifuged at 105,000×g for 1 hour to pellet the microsomes; from tissue; host or cells: liver microsomes of male Sprague Dawley rats
T1 sequence (Q7TQM4 1-524): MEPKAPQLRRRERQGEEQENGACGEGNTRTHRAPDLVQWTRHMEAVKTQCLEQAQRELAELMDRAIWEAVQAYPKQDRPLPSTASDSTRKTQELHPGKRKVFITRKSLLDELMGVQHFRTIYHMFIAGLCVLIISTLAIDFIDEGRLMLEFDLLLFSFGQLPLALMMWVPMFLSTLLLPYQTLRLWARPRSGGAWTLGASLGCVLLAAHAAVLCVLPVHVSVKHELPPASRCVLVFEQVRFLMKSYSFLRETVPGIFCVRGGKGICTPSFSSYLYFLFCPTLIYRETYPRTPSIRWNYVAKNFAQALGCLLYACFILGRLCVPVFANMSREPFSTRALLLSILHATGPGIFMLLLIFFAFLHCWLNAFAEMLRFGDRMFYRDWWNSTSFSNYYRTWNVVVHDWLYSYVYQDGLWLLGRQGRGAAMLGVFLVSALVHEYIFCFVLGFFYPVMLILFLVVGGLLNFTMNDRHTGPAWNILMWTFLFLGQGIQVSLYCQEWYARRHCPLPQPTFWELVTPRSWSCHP
Assay: Inhibition of Acyl-CoA: Cholesterol Acyltransferase (ACAT) in Hepatic Microsomes (In Vitro Assay)
Assay type: biochemical, rat (male Sprague Dawley)
Details: 75 μM 14C-oleoyl-CoA, pH 7.4, 37° C., 10 min, read-out: ACAT Inhibitory Activity (In Vitro) (IC50)
Procedure: A. Assay of the Inhibition of Acyl-CoA: Cholesterol Acyltransferase (ACAT) in Hepatic Microsomes (In Vitro Assay)
The ability of the compounds to inhibit ACAT, the enzyme responsible for the intracellular synthesis of cholesteryl esters, was tested as follows. Male Sprague Dawley rats weighing 150-300 g, were fed rat chow ad libitum. The animals were fasted for twenty-four hours prior to being euthanized by CO2. The livers were perfused in situ with 50 ml of cold 0.25 sucrose, excised, and homogenized in three volumes of 0.1M phosphate buffer, pH 7.4, that contained 0.5 mM EDTA (ethylenediamine-tetraacetic acid), 1.0 mM glutathione, 0.25M sucrose and […] leupeptin. Microsomes were obtained by differential centrifugation; the supernatant from an initial spin at 15,000×g for 15 minutes was centrifuged at 105,000×g for 1 hour to pellet the microsomes. The microsomes were suspended in homogenization buffer, reisolated by centrifugation, and stored at -70° C. Microsomes were used within one month of preparation.
The control assay in a final volume of 200 μl consisted of 200 μg of microsomal protein, 75 μM ^14 C-oleoyl-CoA (10,000 dpm/nmol) in 0.1M phosphate, pH 7.4, that contained 1 mM glutathione. Compounds were added in 5 μl of DMSO (dimethyl sulfoxide) and additional controls were run with DMSO only. All components, except the oleoyl-CoA, were preincubated for 15 min. at 37° C. prior to the initiation of the reaction by the addition of oleoyl-CoA. The assay was terminated after 10 min by the addition of 4 ml of chloroform:methanol (2:1, v/v). 20,000 dpm of ^3 H-cholesteryl oleate and 10 μg of unlabeled cholesteryl oleate and oleic acid were added as an internal standard and carriers, respectively. After allowing 10 min. for lipid extraction, the samples were centrifuged at 1,000×g for 10 min to separate the solvent layers. The chloroform layer containing the neutral lipids was spotted onto a Baker SI250-Pa silica gel TLC plate and the plate developed using a hexane:diethyl ether:acetic acid (170:30:1) v/v/v) mobile phase. The lipids were visualized by their interaction with iodine vapor and the cholesteryl ester spot was scraped into a scintillation vial and counted. The specific activity of ACAT in the control incubation averaged 260 pmol/min/mg microsomal protein. The data obtained are expressed as the concentration at which ACAT activity is inhibited by 50% (IC50).

IC50	Compound
< 1000 nM	CCCCCCSC(C(=O)Nc1c(SC)cc(C)nc1SC)c1ccc([N+](=O)[O-])cc1 (stereo not drawn) [Example 487, N-[2,4-bis(methylthio)-6-methyl-3-pyridyl]-α-hexylthio-4-nitro-phenylacetamide]
< 1000 nM	CSc1cc(C)nc(SC)c1NC(=O)C(SCc1ccc(Cl)cc1)c1ccc(C(C)(C)C)cc1 (stereo not drawn) [Example 437, N-[2,4-bis(methylthio)-6-methyl-3-pyridyl]-α-(4-chloro-benzylthio)-4-tert-butylphenylacetamide]
< 1000 nM	CSc1cc(C)nc(SC)c1NC(=O)C(SCc1ccccc1)c1ccc(C(C)(C)C)cc1 (stereo not drawn) [Example 435, N-[2,4-bis(methylthio)-6-methyl-3-pyridyl]-α-benzylthio-4-tert-butylphenylacetamide]
< 1000 nM	CSc1cc(C)nc(SC)c1NC(=O)C(SCc1ccc(Cl)cc1)c1ccc(C(C)C)cc1 (stereo not drawn) [Example 410, N-[2,4-bis(methylthio)-6-methyl-3-pyridyl]-α-(4-chloro-benzylthio)-4-isopropylphenylacetamide]

More lines, now with the values behind:

Compound	IC50
CSc1cc(C)nc(SC)c1NC(=O)C(SCc1ccc(F)cc1)c1ccc(F)cc1 (stereo not drawn) [Example 153, N-[2,4-bis(methylthio)-6-methyl-3-pyridyl]-α-(4-fluoro-benzylthio)-4-fluoro-phenylacetamide]	< 1000 nM
CSc1cc(C)nc(SC)c1NC(=O)C(SCc1ccc(Cl)cc1)c1ccc(Cl)cc1 (stereo not drawn) [Example 92, N-[2,4-bis(methylthio)-6-methyl-3-pyridyl]-α-(4-chloro-benzylthio)-4-chloro-phenylacetamide]	< 1000 nM
CCCCOc1ccc(CSC(C(=O)Nc2c(SC)cc(C)nc2SC)c2ccc(-c3ccccc3)cc2)cc1 (stereo not drawn) [Example 467, N-[2,4-bis(methylthio)-6-methyl-3-pyridyl]-α-(4-butoxy-benzylthio)-4-biphenylacetamide]	< 1000 nM
CSc1cc(C)nc(SC)c1NC(=O)C(SCc1ccccc1)c1ccc(Cl)c(Cl)c1 (stereo not drawn) [Example 180, N-[2,4-bis(methylthio)-6-methyl-3-pyridyl]-α-benzylthio-3,4-dichloro-phenylacetamide]	< 1000 nM
COc1ccc(C(OC)C(=O)Nc2c(C(C)C)cccc2C(C)C)cc1 (stereo not drawn) [Example 147, N-(2,6-diisopropyl-phenyl)-α-O-methyl-4-methoxymandeloamide]	1000 to 10000 nM
CCSC(C(=O)Nc1c(SC)cc(C)nc1SC)c1ccccc1 (single isomer, unassigned) [Example 49, N-[2,4-bis(methylthio)-6-methyl-3-pyridyl]-D-(-)-α-ethylthio-phenylacetamide]	< 1000 nM
CSc1cc(C)nc(SC)c1NC(=O)C(Sc1ccc(F)cc1)c1ccc(C(F)(F)F)cc1 (stereo not drawn) [Example 393, N-[2,4-bis(methylthio)-6-methyl-3-pyridyl]-α-(4-fluoro-phenylthio)-4-trifluoromethyl-phenylacetamide]	< 1000 nM
COc1ccc(C(SCc2ccc(Cl)cc2)C(=O)Nc2c(SC)cc(C)nc2SC)cc1 (stereo not drawn) [Example 123, N-[2,4-bis(methylthio)-6-methyl-3-pyridyl]-α-(4-chloro-benzylthio)-4-methoxy-phenylacetamide]	< 1000 nM
COc1ccc(CSC(C(=O)Nc2c(SC)cc(C)nc2SC)c2ccc(C(F)(F)F)cc2)cc1 (stereo not drawn) [Example 381, N-[2,4-bis(methylthio)-6-methyl-3-pyridyl]-α-(4-methoxy-benzylthio)-4-trifluoromethyl-phenylacetamide]	< 1000 nM
COc1ccc(CSC(C(=O)Nc2c(SC)cc(C)nc2SC)c2ccc(F)cc2F)cc1 (stereo not drawn) [Example 210, N-[2,4-bis(methylthio)-6-methyl-3-pyridyl]-α-(4-methoxy-benzylthio)-2,4-difluoro-phenylacetamide]	< 1000 nM
